This passage reports IC50 results from patent US7026339B2, “Inhibitors of HCV NS5B polymerase” (priority 2003, dated 2006).

Each structure is given as a SMILES string. Where only a bound is given, the exact number is not on record here.

One test deals with HuH-7 replicon cells 5–15 and 9–13 (HCV replication). Nature of the test: Inhibition of viral replication in HuH-7 replicon cells (HCV RNA / GAPDH RNA by multiplex RT-PCR). To be noted: Hepatitis C virus, 72 h; inhibiting 50% of replication; HuH-7 replicon cells, 3 days; read-out: IC50. Type of test: cell-based. A digest of the protocol:
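Replicon cells seeded at 7×10^3 cells/well, grown 24 h, then exposed 3 days at 37 °C to compound at final 100 μM–1 μM (1% DMSO). Multiplex TaqMan RT-PCR on total RNA quantified HCV 5′-UTR and GAPDH RNA against a standard curve; HCV/GAPDH ratio reported as percent of untreated control.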
`O=S(=O)(N/N=C/c1ccccc1OS(=O)(=O)c1ccc(C(F)(F)F)cc1)c1ccccc1` [Compound 255, 2-{(E)-[2-(phenylsulfonyl)hydrazono]methyl}phenyl4-(trifluoromethyl)benzenesulfonate]: the IC50 was 5 to 50 µM.

For `CC(C)c1ccc(S(=O)(=O)Oc2ccccc2/C=N/NC(=O)Cc2ccccc2)cc1` [Compound 135, 2-{(E)-[2-(2-phenylacetyl)hydrazono]methyl}phenyl 4-isopropylbenzenesulfonate], the IC50 was less than 5 µM.

For the compound `O=C(Cc1ccccc1)N/N=C/c1ccccc1OS(=O)(=O)c1cccc(F)c1` [Compound 113, 2-{(E)-[2-(2-phenylacetyl)hydrazono]methyl}phenyl 3-fluorobenzenesulfonate], the IC50 is greater than 50 µM.

Take `COc1cccc(CC(=O)N/N=C/c2ccccc2OS(=O)(=O)c2ccc(OC)cc2OC)c1` [Compound 154, 2-((E)-{2-[2-(3-methoxyphenyl)acetyl]hydrazono}methyl)-phenyl 2,4-dimethoxybenzenesulfonate]: the IC50 was less than 5 µM.

In the case of `O=C(Cc1ccc(F)c(Cl)c1)N/N=C/c1ccccc1OS(=O)(=O)c1ccc(C(F)(F)F)cc1` [Compound 9, 2-((E)-{2-[2-(3-chloro-4-fluorophenyl)acetyl]hydrazono}methyl)-phenyl 4-(trifluoromethyl)benzenesulfonate], the IC50 was less than 5 µM.

As for `COc1ccc(OC)c(CC(=O)N/N=C/c2ccccc2OS(=O)(=O)c2ccc(C(F)(F)F)cc2)c1` [Compound 37, 2-((E)-{2-[2-(2,5-dimethoxyphenyl)acetyl]hydrazono}methyl)-phenyl 4-(trifluoromethyl)benzenesulfonate], the IC50 is less than 5 µM.

As to `COc1cccc(CC(=O)N/N=C/c2ccccc2OS(=O)(=O)c2ccc(OCc3cnc(Cl)s3)cc2)c1` [Compound 225, 2-((E)-{2-[2-(3-methoxyphenyl)acetyl]hydrazono}methyl)-phenyl 4-[(2-chloro-1,3-thiazol-5-yl)methoxy]benzenesulfonate], the IC50 is greater than 50 µM.

With `CCOc1ccc(CC(=O)N/N=C/c2ccccc2OS(=O)(=O)c2ccc(C(F)(F)F)cc2)cc1` [Compound 67, 2-((E)-{2-[2-(4-ethoxyphenyl)acetyl]hydrazono}methyl)-phenyl 4-(trifluoromethyl)benzenesulfonate], the IC50 lay in the range of 5 to 50 µM.

In the case of `O=C(Cc1ccc(SC(F)(F)F)cc1)N/N=C/c1ccccc1OS(=O)(=O)c1ccc(C(F)(F)F)cc1` [Compound 19, 2-{(E)-[2-(2-{4-[(trifluoromethyl)thio]phenyl}acetyl)hydra-zono]methyl}phenyl 4-(trifluoromethyl)benzenesulfonate], the IC50 was in the range of 5 to 50 µM.

As for `Cc1ccc(S(=O)(=O)Oc2cnccc2/C=N/NC(=O)Cc2cccc(Cl)c2)cc1` [Compound 228, 4-((E)-{2-[2-(3-chlorophenyl)acetyl]hydrazono}methyl)-pyridin-3-yl 4-methylbenzenesulfonate], the IC50 is less than 5 µM.

For `COc1cccc(CC(=O)N/N=C/c2ccccc2OS(=O)(=O)c2ccc(C(C)=O)cc2)c1` [Compound 195, 2-((E)-{2-[2-(3-methoxyphenyl)acetyl]hydrazono}methyl)-phenyl 4-acetylbenzenesulfonate], the IC50 is less than 5 µM.

For the compound `O=C(Cc1ccccc1)N/N=C/c1ccccc1OS(=O)(=O)c1cccc(Cl)c1` [Compound 116, 2-{(E)-[2-(2-phenylacetyl)hydrazono]methyl}phenyl 3-chlorobenzenesulfonate], the IC50 was greater than 50 µM.

For `O=S(=O)(Cc1cccc(Cl)c1)N/N=C/c1ccccc1OS(=O)(=O)c1ccc(C(F)(F)F)cc1` [Compound 250, 2-((E)-[2-[(3-chlorobenzyl)sulfonyl]hydrazono}methyl)-phenyl 4-(trifluoromethyl)benzenesulfonate], the IC50 lay in the range of 5 to 50 µM.

As to `COc1cc(OC)c(CC(=O)N/N=C/c2ccccc2OS(=O)(=O)c2ccc(C(F)(F)F)cc2)c(OC)c1` [Compound 66, 2-((E)-{2-[2-(2,4,6-trimethoxyphenyl)acetyl]hydrazono}methyl)-phenyl 4-(trifluoromethyl)benzenesulfonate], the IC50 lay in the range of 5 to 50 µM.

On to `O=C(N/N=C/c1ccccc1OS(=O)(=O)c1ccc(C(F)(F)F)cc1)c1ccccc1[N+](=O)[O-]` [Compound 77, 2-{(E)-[2-(2-nitrobenzoyl)hydrazono]methyl}phenyl 4-(trifluoromethyl)benzenesulfonate], for which the IC50 was less than 5 µM.

`Cc1ccc(S(=O)(=O)Oc2cccc(F)c2/C=N/NC(=O)Cc2cccc(Cl)c2)cc1` [Compound 205, 2-((E)-{[(3-chlorophenyl)acetyl]hydrazono}methyl)-3-fluorophenyl 4-methylbenzenesulfonate]: the IC50 lay within 5 to 50 µM.

As for `O=C(Cc1cc(C(F)(F)F)ccc1C(F)(F)F)N/N=C/c1ccccc1OS(=O)(=O)c1ccc(C(F)(F)F)cc1` [Compound 32, 2-[(E)-(2-{2-[2,5-bis(trifluoromethyl)phenyl]acetyl}hydrazono)-methyl]phenyl 4-(trifluoromethyl)benzenesulfonate], the half-inhibitory concentration (IC50) is less than 5 µM.

For the compound `Cc1ccc(Oc2ccccc2/C=N/NC(=O)Cc2ccccc2)cc1` [Compound 234, N′-{(1E)-[2-(4-methylphenoxy)phenyl]methylene}-2-phenylacetohydrazide], the IC50 was greater than 50 µM.

In the case of `Cc1ccc(OS(=O)(=O)c2ccc(C(F)(F)F)cc2)c(/C=N/NC(=O)Cc2cccc(Cl)c2)c1` [Compound 175, 2-((E)-{[(3-chlorophenyl)acetyl]hydrazono}methyl)-4-methylphenyl 4-(trifluoromethyl)benzenesulfonate], the IC50 was less than 5 µM.

With `O=C(Cc1cc(F)ccc1F)N/N=C/c1ccccc1OS(=O)(=O)c1ccc(C(F)(F)F)cc1` [Compound 31, 2-((E)-{2-[2-(2,5-difluorophenyl)acetyl]hydrazono}methyl)-phenyl 4-(trifluoromethyl)benzenesulfonate], the IC50 was less than 5 µM.

Turning to `CCCc1ccc(S(=O)(=O)Oc2ccccc2/C=N/NC(=O)Cc2ccccc2)cc1` [Compound 134, 2-{(E)-[2-(2-phenylacetyl)hydrazono]methyl}phenyl 4-propylbenzenesulfonate], the IC50 was less than 5 µM.

`Cc1cccc(/C=N/NC(=O)Cc2cccc(Cl)c2)c1OS(=O)(=O)c1ccc(C(F)(F)F)cc1` [Compound 173, 2-((E)-{[(3-chlorophenyl)acetyl]hydrazono}methyl)-6-methylphenyl 4-(trifluoromethyl)benzenesulfonate]: the IC50 is less than 5 µM.

Turning to `COc1ccc(CC(=O)N/N=C/c2ccccc2OS(=O)(=O)c2ccc(C(F)(F)F)cc2)c(OC)c1OC` [Compound 15, 2-((E)-{2-[2-(2,3,4-trimethoxyphenyl)acetyl]hydrazono}-methyl)phenyl 4-(trifluoromethyl)-benzenesulfonate], the IC50 is less than 5 µM.

`O=C(Cc1cccc(Cl)c1)N/N=C/c1ccccc1OS(=O)(=O)c1ccc(C(F)(F)F)cc1` [Compound 148, 2-((E)-{2-[2-(3-chlorophenyl)acetyl]hydrazono}methyl)-phenyl 4-(trifluoromethyl)benzenesulfonate]: the IC50 is less than 5 µM.

As for `CCc1ccc(S(=O)(=O)N/N=C/c2ccccc2OS(=O)(=O)c2ccc(C(F)(F)F)cc2)cc1` [Compound 105, 2-((E)-{2-[(4-ethylphenyl)sulfonyl]hydrazono}methyl)-phenyl 4-(trifluoromethyl)benzenesulfonate], the IC50 was 5 to 50 µM.

For the compound `O=C(Cc1ccccc1)N/N=C/c1ccccc1OS(=O)(=O)c1ccccc1OC(F)(F)F` [Compound 141, 2-{(E)-[2-(2-phenylacetyl)hydrazono]methyl}phenyl 2-(trifluoromethoxy)benzenesulfonate], the IC50 is greater than 50 µM.

Regarding `O=C(N/N=C/c1ccccc1OS(=O)(=O)c1ccc(C(F)(F)F)cc1)c1c(F)cccc1C(F)(F)F` [Compound 103, 2-((E)-{2-[2-fluoro-6-(trifluoromethyl)benzoyl]hydrazono}methyl)-phenyl 4-(trifluoromethyl)benzenesulfonate], the IC50 is less than 5 µM.

For the compound `O=C(Cc1ccc(C(F)(F)F)cc1)N/N=C/c1ccccc1OS(=O)(=O)c1ccc(C(F)(F)F)cc1` [Compound 34, 2-[(E)-(2-{2-[4-(trifluoromethyl)phenyl]acetyl}hydrazono)-methyl]phenyl 4-(trifluoromethyl)benzenesulfonate], the IC50 is less than 5 µM.

For the compound `COc1cccc(CC(=O)N/N=C/c2ccccc2OS(=O)(=O)c2ccc(Br)s2)c1` [Compound 190, 2-((E)-{2-[2-(3-methoxyphenyl)acetyl]hydrazono}methyl)-phenyl 5-bromothiophene-2-sulfonate], the IC50 is less than 5 µM.

In the case of `Cc1ccc(S(=O)(=O)Cc2ccccc2/C=N/NC(=O)Cc2cccc(Cl)c2)cc1` [Compound 231, 2-(3-chlorophenyl)-N′-[(1E)-(2-{[(4-methylphenyl)sulfonyl]methyl}phenyl)-methylene]acetohydrazide], the IC50 was less than 5 µM.

Consider `Cc1ccccc1C(=O)N/N=C/c1ccccc1OS(=O)(=O)c1ccc(C(F)(F)F)cc1` [Compound 100, 2-{(E)-[2-(2-methylbenzoyl)hydrazono]methyl}phenyl4-(trifluoromethyl)benzenesulfonate], for which the IC50 was less than 5 µM.

As to `O=C(Cc1ccccc1)N/N=C/c1ccccc1OS(=O)(=O)c1ccccc1Cl` [Compound 132, 2-{(E)-[2-(2-phenylacetyl)hydrazono]methyl}phenyl 2-chlorobenzenesulfonate], the IC50 was greater than 50 µM.

Turning to `COc1cccc(OS(=O)(=O)c2ccc(C(F)(F)F)cc2)c1/C=N/NC(=O)Cc1cccc(Cl)c1` [Compound 174, 2-((E)-{[(3-chlorophenyl)acetyl]hydrazono}methyl)-3-methoxyphenyl 4-(trifluoromethyl)benzenesulfonate], the IC50 was less than 5 µM.

Staying with this test, now noted: Hepatitis C virus, Huh-7, 72 h.
The compound `O=C(CC1CC2CCC1C2)N/N=C/c1ccccc1OS(=O)(=O)c1ccc(C(F)(F)F)cc1` (stereo not shown) [Compound 80, 2-{(E)-[2-(2-bicyclo[2.2.1]hept-2-ylacetyl)hydrazono]methyl}phenyl 4-(trifluoromethyl)benzenesulfonate] had an IC50 of less than 5 µM.

Usually IC50 stands for the concentration at which inhibition is half-maximal.
